Measured values from US4005213A, “2,5-Substituted-1,3,4-thiadiazoles as fungicides” (Schering Aktiengesellschaft, priority 1968, dated 1977).

Legend:
[1] = system: Fusarium oxysporum f. callistephi; assay: Soil inoculated with Fusarium oxysporum f. callistephi, Callistephus chinensis host plants (Example 5); type: in vivo; settings: four seedlings per concentration
From the text: Steamed compost soil was inoculated with a spore suspension of Fusarium oxysporum f. callistephi. After homogeneous mixture of the products with the infested soil, the products were present as 20% powder preparations, and after a waiting period of 8 days, there were set out per concentration four seedlings of Callistephus chinensis, master aster "Sun Ray" as host plants.

Pythium ultimum [2] = assay: Pea test in soil inoculated with Pythium ultimum (Example 2); type: in vivo; parameters: key to Root evaluation (1-4): 4 = white roots, no necroses … 1 = severe necroses, roots rotted; settings: for Number of sound peas after 3 wks.: 25 grains seeded; for Root evaluation (1-4): 3 weeks
Procedure: Steamed compost soil was inoculated with mycelium of Pythium ultimum. […] The following table lists the number of germinated sound peas, the weight of the fresh plant, and a root evaluation after a cultivation period of 3 weeks at 22°-25° C.
4 = white roots, without fungus necroses
3 = white roots, slight fungus necroses
2 = brown roots, more intense fungus necroses
1 = severe fungus necroses, roots rotted

Rhizoctonia solani [3] = assay: Pea test in soil inoculated with Rhizoctonia solani (Example 3); type: in vivo; settings: for Number of sound peas after 3 wks.: 25 grains seeded; for Root evaluation (1-4): 3 weeks
From the text: Steamed compost soil was inoculated with mycelium of Rhizoctonia solani. After homogeneous mixture of the products with the infested soil, the products were present in the form of 20% powder preparations, the seeding of 25 grains of marrow peas of the variety Miracle of Kelvedon per concentration was effected without waiting period in clay dishes holding 1 liter of soil. The table lists the number of germinated sound peas, the weight of the fresh plant, and a root evaluation after a cultivation period of 3 weeks at 22°-25° C.

Rhizoctonia solani [4] = assay: Fungicidal effect in the vapor phase, Rhizoctonia solani (Example 11); type: cell-based; settings: even at 1 mg active ingredient per liter; 5 days, 22° C.; 10% powder
Procedure: (§1) Nutrient medium inoculated with nycelium of Pythium ultimum or Rhizoctonia solani in open Petri dishes was placed in glass vessels 12 cm tall. First the quantity of product as a 10% powder preparation had been placed on the bottom of the glasses. After a reaction time of 3 days (Pythium) and 5 days (Rhizoctonia) at a temperature of 22° C. in the covered glass vessel, the mycelium growth was evaluated.

Stemphylium ilicis = assay: Agar test, Stemphylium ilicis (Example 7); type: cell-based; settings: 10 ppm in malt extract agar, 5 days at 22° C.; control 100
Procedure: (§2) The fungicidal action of the agents according to the invention was tested in artificial nutrient media against plant-pathogenic fungi in Petri dishes (agar test). The procedure was to sterilize the medium consisting of 2% malt extract and 1.5% agar-agar powder. Before the solidification of the medium, the active substances were added to it, mixing thoroughly, so that the medium received 10 parts of active substance per million (ppm). After the solidification of the medium, the latter was inoculated with a platinum dropper which contained 100 spores each of the fungi to be tested, and after 5 days at 22° C., an evaluation was made by measuring the diameter of the colonies in mm.

Pythium ultimum [5] = assay: Fungicidal effect in the vapor phase, Pythium ultimum (Example 11); type: cell-based; settings: even at 1 mg active ingredient per liter; 3 days, 22° C.; 10% powder
Procedure: as §1

Pythium ultimum [6] = assay: Limit concentration of soil-fungicidal effectiveness, Pythium ultimum infested soil, peas (Example 1); type: in vivo; settings: Globisporangium ultimum, 20 to 23 days, 22°-25° C., germination at least 90% vs steamed soil
Procedure: Limit concentrations of the soil-fungicidal effectiveness at homogeneous mixture of the products with the infested soil. Basic condition in the evaluation are a sound root formation without fungus necroses and germination of the seed of at least 90% compared with the result obtained in steamed soil. Per concentration there were seeded 25 grains of peas of the variety "Miracle of Kelvedon" (marrow pea) without a waiting period. the cultivation time in the tests was 20 to 23 days at a temperature of 22°-25° C. Four commercial products were included in the test series.
Pythium ultimum: Steamed compost soil was inoculated with mycelium of Pythium ultimum

Aspergillus niger = assay: Agar test, Aspergillus niger (Example 7); type: cell-based; settings: 10 ppm in malt extract agar, 5 days at 22° C.; control 100
Procedure: as §2

Meloidogyne incognita = assay: Nematocidal action against root gall nematodes, cucumber (Example 8); type: in vivo; settings: reduction of attack, 30 days
Procedure: The products as 20% powder preparations were homogeneously admixed with a compost soil heavily infested by root gall nematodes. Without a waiting period, 20 cucumber seeds per concentration were seeded. After a cultivation time of 30 days at a temperature of 23°-25° C., the nematocidal action was evaluated by counting the root galls formed in the waterbath. The following table states the reduction of attack in percent. In the control, an average of 90 root galls per seedling had formed.

[7] = 50 mg active ingr. per liter of soil
[8] = 100 mg active ingr. per liter of soil
[9] = 200 mg active ingr. per liter of soil
[10] = 10 mg active ingr. per liter of soil
[11] = 20 mg active ingr. per liter of soil
[12] = 30 mg active ingr. per liter of soil
[13] = 40 mg active substance per liter of soil
[14] = 60 mg active substance per liter of soil

Structure (SMILES): COc1cc(Cl)c(OC)cc1Cl [1,4-dichloro-2,5-dimethoxybenzene, reference compound]
- No. of attacked plants after 3 weeks [1, 7]: 4
- No. of attacked plants after 3 weeks [1, 8]: 4
- No. of attacked plants after 3 weeks [1, 9]: 4
- Number of sound peas after 3 wks. (Pythium ultimum [2]; [9]): 2
- Number of sound peas after 3 wks. (Rhizoctonia solani [3]; [10]): 0
- Number of sound peas after 3 wks. (Rhizoctonia solani [3]; [11]): 0
- Number of sound peas after 3 wks. (Rhizoctonia solani [3]; [12]): 21
- Number of sound peas after 3 wks. (Rhizoctonia solani [3]; 40 mg active ingr. per liter of soil): 22

Structure (SMILES): CS(=O)(=O)c1nnc(C(F)(F)F)s1 [Compound 1, 2-trifluoromethyl-5-methylsulfonyl-1,3,4-thiadiazole]
- mycelium growth, Rhizoctonia solani, vapor phase (Rhizoctonia solani [4]): no mycelium growth
- diameter of the colonies, Stemphylium ilicis (Stemphylium ilicis): 0 mm
- Root evaluation (1-4) (Pythium ultimum [2]; [10]): 4
- Root evaluation (1-4) (Pythium ultimum [2]; [11]): 4
- Number of sound peas after 3 wks. (Pythium ultimum [2]; [11]): 22
- Root evaluation (1-4) (Pythium ultimum [2]; [12]): 4
- mycelium growth, Pythium ultimum, vapor phase (Pythium ultimum [5]): no mycelium growth
- minimal effective concentration (Pythium ultimum [6]): 10 µg/mL
- diameter of the colonies, Aspergillus niger (Aspergillus niger): 0 mm

Structure (SMILES): CC[S+]([O-])c1nnc(C(Cl)Cl)s1 (centres unmarked) [Compound 4, 2-dichloromethyl-5-ethylsulfinyl 1,3,4-thiadiazole]
- Nematocidal action in % (Meloidogyne incognita) (Meloidogyne incognita; [13]): 96%
- Nematocidal action in % (Meloidogyne incognita) (Meloidogyne incognita; [14]): 99%
- minimal effective concentration (Pythium ultimum [6]): 100 µg/mL

Structure (SMILES): CCC[S+]([O-])c1nnc(C(Cl)Cl)s1 (centres unmarked) [Compound 5, 2-dichloromethyl-5-propylsulfinyl-1,3,4-thiadiazole]
- Nematocidal action in % (Meloidogyne incognita) (Meloidogyne incognita; [13]): 90%
- Nematocidal action in % (Meloidogyne incognita) (Meloidogyne incognita; [14]): 98%
- minimal effective concentration (Pythium ultimum [6]): 100 µg/mL

Structure (SMILES): C[S+]([O-])c1nnc(C(Cl)(Cl)Cl)s1 (centres unmarked) [Compound 8, 2-trichloromethyl-5-methylsulfinyl-1,3,4-thiadiazole]
- diameter of the colonies, Stemphylium ilicis (Stemphylium ilicis): 0 mm
- Root evaluation (1-4) (Pythium ultimum [2]; [10]): 1
- Root evaluation (1-4) (Pythium ultimum [2]; [11]): 4
- Root evaluation (1-4) (Pythium ultimum [2]; [12]): 4
- minimal effective concentration (Pythium ultimum [6]): 20 µg/mL
- diameter of the colonies, Aspergillus niger (Aspergillus niger): 0 mm
- Root evaluation (1-4) (Rhizoctonia solani [3]; [10]): 4
- Root evaluation (1-4) (Rhizoctonia solani [3]; [11]): 4
- Root evaluation (1-4) (Rhizoctonia solani [3]; [12]): 4

Structure (SMILES): CC[S+]([O-])c1nnc(C(Cl)(Cl)Cl)s1 (centres unmarked) [Compound 9, 2-trichloromethyl-5-ethylsulfinyl-1,3,4-thiadiazole]
- diameter of the colonies, Stemphylium ilicis (Stemphylium ilicis): 0 mm
- minimal effective concentration (Pythium ultimum [6]): 200 µg/mL
- diameter of the colonies, Aspergillus niger (Aspergillus niger): 0 mm
- Root evaluation (1-4) (Rhizoctonia solani [3]; [10]): 4
- Root evaluation (1-4) (Rhizoctonia solani [3]; [11]): 4
- Root evaluation (1-4) (Rhizoctonia solani [3]; [12]): 4

Structure (SMILES): CCS(=O)(=O)c1nnc(C(Cl)Cl)s1 [Compound 18, 2-dichloromethyl-5-ethylsulfonyl-1,3,4-thiadiazole]
- diameter of the colonies, Stemphylium ilicis (Stemphylium ilicis): 0 mm
- Nematocidal action in % (Meloidogyne incognita) (Meloidogyne incognita; [13]): 61%
- Nematocidal action in % (Meloidogyne incognita) (Meloidogyne incognita; [14]): 90%
- minimal effective concentration (Pythium ultimum [6]): > 200 µg/mL
- diameter of the colonies, Aspergillus niger (Aspergillus niger): 0 mm

Structure (SMILES): CCCS(=O)(=O)c1nnc(C(Cl)Cl)s1 [Compound 19, 2-dichloromethyl-5-propylsulfonyl-1,3,4-thiadiazole]
- diameter of the colonies, Stemphylium ilicis (Stemphylium ilicis): 0 mm
- Nematocidal action in % (Meloidogyne incognita) (Meloidogyne incognita; [13]): 72%
- Nematocidal action in % (Meloidogyne incognita) (Meloidogyne incognita; [14]): 82%
- minimal effective concentration (Pythium ultimum [6]): 100 µg/mL
- diameter of the colonies, Aspergillus niger (Aspergillus niger): 0 mm

Structure (SMILES): CCCS(=O)(=O)c1nnc(C(Cl)(Cl)Cl)s1 [Compound 23, 2-trichloromethyl-5-propylsulfonyl-1,3,4-thiadiazole]
- diameter of the colonies, Stemphylium ilicis (Stemphylium ilicis): 0 mm
- minimal effective concentration (Pythium ultimum [6]): 150 µg/mL
- diameter of the colonies, Aspergillus niger (Aspergillus niger): 0 mm
- Root evaluation (1-4) (Rhizoctonia solani [3]; [10]): 1
- Root evaluation (1-4) (Rhizoctonia solani [3]; [11]): 3
- Root evaluation (1-4) (Rhizoctonia solani [3]; [12]): 4

Structure (SMILES): CCCCCCS(=O)(=O)c1nnc(C(Cl)(Cl)Cl)s1 [Compound 27, 2-trichloromethyl-5-hexylsulfonyl-1,3,4-thiadiazole]
- diameter of the colonies, Stemphylium ilicis (Stemphylium ilicis): 0 mm
- minimal effective concentration (Pythium ultimum [6]): > 200 µg/mL
- diameter of the colonies, Aspergillus niger (Aspergillus niger): 0 mm

Structure (SMILES): CCCCCCCS(=O)(=O)c1nnc(C(Cl)(Cl)Cl)s1 [Compound 28, 2-trichloromethyl-5-heptysulfonyl-1,3,4-thiadiazole]
- diameter of the colonies, Stemphylium ilicis (Stemphylium ilicis): 0 mm
- minimal effective concentration (Pythium ultimum [6]): > 200 µg/mL
- diameter of the colonies, Aspergillus niger (Aspergillus niger): 0 mm

Structure (SMILES): CCCCCCCCS(=O)(=O)c1nnc(C(Cl)(Cl)Cl)s1 [Compound 29, 2-trichloromethyl-5-octylsulfonyl-1,3,4-thiadiazole]
- diameter of the colonies, Stemphylium ilicis (Stemphylium ilicis): 0 mm
- minimal effective concentration (Pythium ultimum [6]): > 200 µg/mL
- diameter of the colonies, Aspergillus niger (Aspergillus niger): 19 mm

Structure (SMILES): CS(=O)(=O)c1nnc(C(Br)Br)s1 [Compound 32, 2-dibromomethyl-5-methylsulfonyl-1,3,4-thiadiazole]
- diameter of the colonies, Stemphylium ilicis (Stemphylium ilicis): 0 mm
- minimal effective concentration (Pythium ultimum [6]): 20 µg/mL
- diameter of the colonies, Aspergillus niger (Aspergillus niger): 0 mm

Structure (SMILES): C[S+]([O-])c1nnc(C(F)(F)F)s1 (centres unmarked) [Compound 35, 2-trifluoromethyl-5-methylsulfinyl-1,3,4-thiadiazole]
- mycelium growth, Rhizoctonia solani, vapor phase (Rhizoctonia solani [4]): no mycelium growth
- mycelium growth, Pythium ultimum, vapor phase (Pythium ultimum [5]): no mycelium growth
- minimal effective concentration (Pythium ultimum [6]): 10 µg/mL

Structure (SMILES): CC[S+]([O-])c1nnc(C(F)(F)F)s1 (centres unmarked) [Compound 36, 2-trifluoromethyl-5-ethylsulfinyl-1,3,4-thiadiazole]
- mycelium growth, Rhizoctonia solani, vapor phase (Rhizoctonia solani [4]): no mycelium growth
- mycelium growth, Pythium ultimum, vapor phase (Pythium ultimum [5]): no mycelium growth
- minimal effective concentration (Pythium ultimum [6]): 10 µg/mL

Structure (SMILES): CCS(=O)(=O)c1nnc(C(F)(F)F)s1 [Compound 40, 2-trifluoromethyl-5-ethylsulfonyl-1,3,4-thiadiazole]
- mycelium growth, Rhizoctonia solani, vapor phase (Rhizoctonia solani [4]): no mycelium growth
- mycelium growth, Pythium ultimum, vapor phase (Pythium ultimum [5]): no mycelium growth
- minimal effective concentration (Pythium ultimum [6]): 10 µg/mL

Structure (SMILES): O=C1C2CC=CCC2C(=O)N1SC(Cl)(Cl)Cl (centres unmarked) [N-(trichloromethylthio)-cyclohex-4-ene-1,2-dicarboximide]
- No. of attacked plants after 3 weeks [1, 7]: 4
- No. of attacked plants after 3 weeks [1, 8]: 4
- No. of attacked plants after 3 weeks [1, 9]: 4
- Root evaluation (1-4) (Pythium ultimum [2]; [9]): 1
- Number of sound peas after 3 wks. (Pythium ultimum [2]; [9]): 13
